Experiments:
Conditions in all cases: treatment: drug alone; 5 days
769-P [1] = test: GI50, drug alone; higher = less potent
Description: (§1)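 Primary HTS: 8 RCC cell lines treated with 8 doses (up to 10 uM) of each library drug alone for 5 days; viability read by CellTiter-Glo and normalised to DMSO. GI50 was fitted with XLfit (4-parameter), AUC is the area under the dose-response curve, and minimum viability is the lowest fraction of DMSO viability across doses.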

786-O [2] = test: GI50, drug alone; higher = less potent
Description: as §1

A498 [3] = test: GI50, drug alone; higher = less potent
Description: as §1

ACHN [4] = test: GI50, drug alone; higher = less potent
Description: as §1

CAKI-1 [5] = test: GI50, drug alone; higher = less potent
Description: as §1

SN12C [6] = test: GI50, drug alone; higher = less potent
Description: as §1

TK-10 [7] = test: GI50, drug alone; higher = less potent
Description: as §1

UO-31 [8] = test: GI50, drug alone; higher = less potent
Description: as §1

769-P [9] = test: minimum viability across doses, drug alone, relative to DMSO (fraction); higher = less growth inhibition
Description: as §1

786-O [10] = test: as above
Description: as §1

A498 [11] = test: as above
Description: as §1

ACHN [12] = test: as above
Description: as §1

CAKI-1 [13] = test: as above
Description: as §1

SN12C [14] = test: as above
Description: as §1

TK-10 [15] = test: as above
Description: as §1

UO-31 [16] = test: as above
Description: as §1

769-P [17] = test: AUC of dose-response viability curve, drug alone (arbitrary (AUC of normalised viability)); higher = less growth inhibition
Description: as §1

786-O [18] = test: as above
Description: as §1

A498 [19] = test: as above
Description: as §1

ACHN [20] = test: as above
Description: as §1

CAKI-1 [21] = test: as above
Description: as §1

SN12C [22] = test: as above
Description: as §1

TK-10 [23] = test: as above
Description: as §1

UO-31 [24] = test: as above
Description: as §1

SMILES | GI50, drug alone (769-P [1]) | GI50, drug alone (786-O [2]) | GI50, drug alone (A498 [3]) | GI50, drug alone (ACHN [4]) | GI50, drug alone (CAKI-1 [5]) | GI50, drug alone (SN12C [6]) | GI50, drug alone (TK-10 [7]) | GI50, drug alone (UO-31 [8]) | minimum viability across doses (769-P [9]) | minimum viability across doses (786-O [10]) | minimum viability across doses (A498 [11]) | minimum viability across doses (ACHN [12]) | minimum viability across doses (CAKI-1 [13]) | minimum viability across doses (SN12C [14]) | minimum viability across doses (TK-10 [15]) | minimum viability across doses (UO-31 [16]) | AUC of dose-response viability curve (769-P [17]) | AUC of dose-response viability curve (786-O [18]) | AUC of dose-response viability curve (A498 [19]) | AUC of dose-response viability curve (ACHN [20]) | AUC of dose-response viability curve (CAKI-1 [21]) | AUC of dose-response viability curve (SN12C [22]) | AUC of dose-response viability curve (TK-10 [23]) | AUC of dose-response viability curve (UO-31 [24])
Cc1cc(C(C)Nc2ccccc2)c2nc(N3CCOCC3)cc(=O)n2c1 (stereo unspecified) [TGX-221] | > 10 µM | > 10 µM | > 10 µM | > 10 µM | 8.6 µM | > 10 µM | > 10 µM | > 10 µM | 0.749 | 0.622 | 1.04 | 0.736 | 0.49 | 0.847 | 0.707 | 1.15 | 3.18 | 2.6 | 4.23 | 3.15 | 2.84 | 3.34 | 3.06 | 5.04
Cl.Cl.NC1(c2ccc(-c3nc4ccn5c(=O)[nH]nc5c4cc3-c3ccccc3)cc2)CCC1 [MK-2206 dihydrochloride] | > 10 µM | 2.53 µM | > 10 µM | 0.0672 µM | 5.82 µM | > 10 µM | 4.66 µM | 9.92 µM | 0.626 | 0.418 | 0.917 | 0.383 | 0.464 | 0.655 | 0.435 | 0.459 | 3.04 | 2.51 | 3.78 | 2.13 | 2.92 | 3.04 | 2.55 | 3.43
COc1cc(Nc2ncc(F)c(Nc3ccc4c(n3)NC(=O)C(C)(C)O4)n2)cc(OC)c1OC.O=S(=O)(O)c1ccccc1 [R406] | > 10 µM | 2.01 µM | > 10 µM | 5.85 µM | 1.33 µM | 4.6 µM | 9.02 µM | 8.77 µM | 0.536 | 0.221 | 0.882 | 0.451 | 0.183 | 0.336 | 0.479 | 0.164 | 3.1 | 2.46 | 3.57 | 2.94 | 2.59 | 3.11 | 2.85 | 2.59
OCCn1cc(-c2ccc3c(c2)CC/C3=N\O)c(-c2ccncc2)n1 [GDC-0879] | > 10 µM | > 10 µM | > 10 µM | > 10 µM | > 10 µM | > 10 µM | > 10 µM | > 10 µM | 0.92 | 0.716 | 1.05 | 0.745 | 0.98 | 0.999 | 0.937 | 1.18 | 3.52 | 2.97 | 4.12 | 3.54 | 4.13 | 3.81 | 3.5 | 5.03
CS(=O)c1ccc(-c2nc(-c3ccc(F)cc3)c(-c3ccncc3)[nH]2)cc1 (stereo unspecified) | > 10 µM | > 10 µM | > 10 µM | 0.142 µM | > 10 µM | > 10 µM | > 10 µM | > 10 µM | 0.892 | 0.774 | 1.12 | 0.577 | 0.931 | 0.84 | 0.713 | 1.06 | 3.37 | 3.47 | 4.51 | 2.51 | 3.69 | 3.43 | 2.98 | 4.33
Clc1ccc(C2(c3ccc(-c4cn[nH]c4)cc3)CCNCC2)cc1 [AT7867] | 6.56 µM | 1.11 µM | 7.63 µM | 2.57 µM | 4.09 µM | 5.46 µM | 3.73 µM | 0.249 µM | 0.338 | 0.00712 | 0.263 | 0.0705 | 0.155 | 0.212 | 0.0799 | 0.00617 | 3.02 | 2.05 | 3.49 | 2.89 | 2.8 | 3.13 | 2.84 | 2.21
CC(C)n1nc(-c2cc3cc(O)ccc3[nH]2)c2c(N)ncnc21 [PP242] | 1.55 µM | 1.3 µM | 2.91 µM | 0.348 µM | 0.523 µM | 0.677 µM | 0.522 µM | 4.1 µM | 0.0576 | 0.00205 | 0.0519 | 0.05 | 0.0389 | 0.0949 | 0.0788 | 0.00829 | 2.56 | 2.02 | 2.93 | 2.07 | 2.12 | 2.23 | 2.12 | 3.42
COc1ccc(-c2ccc3c(N4CCOC[C@@H]4C)nc(N4CCOC[C@@H]4C)nc3n2)cc1CO [AZD8055] | 0.171 µM | 0.00959 µM | 0.37 µM | 0.0415 µM | 0.119 µM | 0.11 µM | 0.0851 µM | 0.0691 µM | 0.109 | 0.00631 | 0.229 | 0.0903 | 0.0607 | 0.163 | 0.0959 | 0.00497 | 1.76 | 0.809 | 2.4 | 1.25 | 1.48 | 1.62 | 1.48 | 1.29
c1ccc2c(CCNc3ccc(Nc4ccncc4)cc3)c[nH]c2c1 | 0.532 µM | > 10 µM | 1.36 µM | 0.136 µM | 0.66 µM | 0.881 µM | 1.03 µM | 0.115 µM | 0.0434 | 0.00353 | 0.022 | 0.00286 | 0.0912 | 0.0036 | 0.00837 | 0.00809 | 2.32 | 0.978 | 2.76 | 1.55 | 2.31 | 2.28 | 2.34 | 1.6
CC(C)(C)c1cc(C=C(C#N)C#N)cc(Br)c1O [AG-1024] | > 10 µM | > 10 µM | > 10 µM | > 10 µM | > 10 µM | > 10 µM | > 10 µM | > 10 µM | 0.853 | 0.729 | 1.02 | 0.904 | 0.846 | 0.919 | 0.791 | 1.24 | 3.41 | 2.78 | 3.94 | 3.56 | 3.65 | 3.53 | 3.13 | 4.79
Nc1nc(NCCNc2ncc(-n3ccnc3)c(-c3ccc(Cl)cc3Cl)n2)ccc1[N+](=O)[O-] | 2.72 µM | 1.24 µM | > 10 µM | 3.93 µM | 7.77 µM | 9.82 µM | 1.92 µM | 1.65 µM | 0.0343 | 0.013 | 0.701 | 0.0311 | 0.211 | 0.455 | 0.0728 | 0.0119 | 2.89 | 2.36 | 4.54 | 3.06 | 3.69 | 3.5 | 2.43 | 3.59
COc1ccc(COc2cc3oc(=O)c4cc(C(C)O)ccc4c3cc2OC)cc1 (stereo unspecified) [Palomid 529] | > 10 µM | 5.75 µM | > 10 µM | > 10 µM | > 10 µM | > 10 µM | > 10 µM | > 10 µM | 0.854 | 0.251 | 1.12 | 0.893 | 0.668 | 0.844 | 0.633 | 1.2 | 3.39 | 2.56 | 4.44 | 3.5 | 3.57 | 3.3 | 2.69 | 5.25
C[C@@H](N)[C@H]1CC[C@H](C(=O)Nc2ccncc2)CC1.Cl.Cl | > 10 µM | > 10 µM | > 10 µM | > 10 µM | > 10 µM | > 10 µM | > 10 µM | > 10 µM | 0.895 | 0.802 | 0.87 | 0.908 | 0.859 | 0.909 | 0.887 | 0.96 | 3.37 | 3.36 | 3.58 | 3.73 | 3.45 | 3.55 | 3.46 | 4.59
Cc1cc(Nc2cc(CN3CCOCC3)c3nc(C)c(Cc4ccc(Cl)cc4F)n3n2)[nH]n1 | 4.13 µM | 0.3 µM | 8.52 µM | 1.98 µM | 2.28 µM | 3.84 µM | 3.03 µM | 7.64 µM | 0.063 | 0.00692 | 0.338 | 0.103 | 0.0334 | 0.216 | 0.0389 | 0.0145 | 3.12 | 1.96 | 4.33 | 2.79 | 3.03 | 2.89 | 2.8 | 4.69
CN1C(=O)C(Cc2c[nH]c3ccccc23)NC1=S (stereo unspecified) [Necrostatin-1] | > 10 µM | 0.0283 µM | > 10 µM | > 10 µM | > 10 µM | > 10 µM | > 10 µM | > 10 µM | 0.968 | 0.334 | 0.888 | 0.79 | 0.916 | 0.868 | 0.729 | 1.01 | 3.6 | 2.03 | 4.28 | 2.99 | 3.5 | 3.29 | 2.91 | 4.83
COc1cc2nccc(Oc3ccc(NC(=O)C4(C(=O)Nc5ccc(F)cc5)CC4)cc3)c2cc1OC [XL-184 free base (Cabozantinib)] | > 10 µM | 5.69 µM | > 10 µM | 1.34 µM | 4.71 µM | 5.27 µM | 4.14 µM | > 10 µM | 0.557 | 0.222 | 0.805 | 0.221 | 0.116 | 0.279 | 0.102 | 0.675 | 3.39 | 3.06 | 3.95 | 2.25 | 3.2 | 2.92 | 2.91 | 3.88
CNC(=O)Nc1ccc(-c2nc(N3CC4CCC(C3)O4)c3cnn(C4CCC5(CC4)OCCO5)c3n2)cc1 | 0.122 µM | 0.0414 µM | 0.23 µM | 0.0587 µM | 0.0567 µM | 0.0971 µM | 0.0812 µM | 0.0343 µM | 0.101 | 0.00279 | 0.09 | 0.0487 | 0.042 | 0.126 | 0.0905 | 0.00242 | 1.66 | 1.25 | 2.28 | 1.4 | 1.31 | 1.64 | 1.52 | 1.01
Cc1cn(-c2cc(NC(=O)c3ccc(C)c(Nc4nccc(-c5cccnc5)n4)c3)cc(C(F)(F)F)c2)cn1 [Nilotinib (AMN-107)] | > 10 µM | > 10 µM | > 10 µM | > 10 µM | > 10 µM | > 10 µM | > 10 µM | > 10 µM | 0.93 | 0.827 | 0.788 | 0.797 | 0.763 | 0.877 | 0.56 | 0.654 | 3.46 | 3.8 | 4.05 | 3.32 | 3.76 | 3.37 | 2.96 | 4.08
CC(C)(C)c1cc(NC(=O)Nc2ccc(-c3cn4c(n3)sc3cc(OCCN5CCOCC5)ccc34)cc2)no1 [Quizartinib (AC220)] | 4.3 µM | 1.36 µM | > 10 µM | 3.48 µM | 2.62 µM | > 10 µM | > 10 µM | > 10 µM | 0.234 | 0.129 | 1.07 | 0.381 | 0.408 | 0.819 | 0.612 | 1.16 | 2.98 | 2.76 | 4.53 | 2.72 | 2.38 | 3.25 | 2.84 | 5.25

— the supplement of paper PMC8149375
